The record followed here is patent EP0989125B1, “Pesticidal furylmethyl cyclopropanecarboxylates” (Sumitomo Chemical Company, Limited, priority 1998, dated 2000).

Data set [1] concerns webbing clothes moth (Tineola bisselliella). The data set is described as follows: Biological test 14: persistence of treated filter paper in cardboard box, webbing clothes moth larvae. Conditions: 36 mg on filter paper. Details: key to degree of damage: -: no damage; +: slight damage; ++: heavy damage; +++: severe damage. It is filed as in vivo. The procedure: A filter paper (3.2 cm × 3.2 cm in size) treated with 36 mg of each of the present compounds and two wool muslin fabrics (25 cm × 25 cm in size) were hung down at the upper part of a corrugated cardboard box (29 cm × 29 cm × 29 cm in size). After standing at 25 °C and a humidity of 60 % for 1 week, two tea-strainer balls holding 7 to 10 middle instar larvae of webbing clothes moth (Tineola bisselliella) and one piece of wool muslin cloth (2 cm × 2 cm in size) were hung down at the upper part of the box. The box was closed with a lid. After one week, the box was opened, and the percent moribund and the degree of damage of the wool muslin cloth by the moths were examined. The same tests was repeated 2 weeks, 3 weeks and 5 weeks after the treatment to examine the persistance of the present compound. The degree of damage was represented by "-" in no damage, " + " in slight damage, " ++ " in heavy damage and "+++ " in severe damage.

The subject of the next data set is rats. Conditions: male 7-week old rats, into the stomach in corn oil, after 7 days. As for the experimental part:
After subjecting the rats to a twenty-hour fasting, 0.1 ml of the diluted solution per 10g weight was forcibly applied into the stomach of four male 7-week old rats. The rats were given food and water four hours after the application and thereafter regularly fed and watered, and kept in a cage. After 7 days, the mortality was examined for the rats and LD50 was calculated.

Data set [2] concerns German cockroaches (Blattella germanica). The data set is described as follows: Biological test 5: treated filter paper with sucrose bait, cockroaches low sensitive to pyrethroids. Particulars: 500 ppm aqueous emulsion, male cockroaches low sensitive to pyrethroids, after six days; 8640 min.
In data set [3] the test system is houseflies (Musca domestica). The data set is described as follows: Biological test 9: topical application of acetone solution to houseflies. It is filed as in vivo. Particulars: 5 µg / one housefly, after 24 hours. The procedure:
After 24 hours, the percent moribund was examined (two replicate).

The subject of data set [4] is common mosquitoes (Culex pipiens pallens). In words: Biological test 8: mosquito-coil in glass chamber, knock-down. It is filed as in vivo. Conditions: 1.0 g of 0.3 % mosquito-coil, 0.34 m^3 chamber, after 15 minutes. As for the experimental part: Mosquito-coil containing the present compound in an amount of 0.3 % was prepared according to the formulation example 10 for the present compounds. Ten female common mosquitoes (Culex pipiens pallens) were left in a glass chamber (70 cm × 70 cm × 70 cm : 0.34 m^3) and 1.0 g of 0.3 % mosquito-coil having both ends lit was placed in the glass chamber. After 15 minutes, the rate of knocked-down mosquitoes was examined.

The test system is the same in data set [5]. The data set is described as follows: Biological test 6: mosquito larvae in treated water. It is filed as in vivo. Conditions: 3.5 ppm active ingredient in water, last-instar larvae, after one day; 1440 min. The procedure: 0.7 ml of aqueous emulsion, obtained by diluting emulsifiable concentrate prepared for each of the present compounds according to the formulation example 1 was added to 100 ml of ion-exchanged water (concentration of active ingredient : 3.5 ppm). Twenty last-instar larvae of common mosquitoes (Culex pipiens pallens) were left in the water. After one day, the mortality of the common mosquitoes was examined.

The test system of data set [6] is houseflies (Musca domestica). In words: Biological test 4: treated filter paper with sucrose bait, houseflies low sensitive to pyrethroids. Conditions: 500 ppm aqueous emulsion, female houseflies low sensitive to pyrethroids, after one day; 1440 min.
In data set [7] the test system is webbing clothes moth (Tineola bisselliella). The data set is described as follows: Biological test 12: topical application to webbing clothes moth larvae. It is filed as in vivo. Conditions: 3 µg / insect, after 7 days. As for the experimental part:
Each of the present compounds diluted with acetone to a predetermined concentration was applied to ten middle instar larvae of webbing clothes moth (Tineola bisselliella) at the central part of the back so as to give the active ingredient in a dose of 3 µg / insect. A wool muslin fabric (2 cm × 2 cm in size) was given to the webbing clothes moths as the food. After 7 days, the mortality and the degree of damage of the wool muslin fabric by the moths were examined (two replicate).

In data set [8] the test system is southern corn rootworm (Diabrotica undecimpunctata howardi). The data set is described as follows: Biological test 3: treated filter paper with eggs and sprouting corn. Conditions: 50 ppm aqueous emulsion, after 8 days.
The subject of data set [9] is common mosquitoes (Culex pipiens pallens). In words: Biological test 7: oil solution sprayed in glass chamber, knock-down. It is filed as in vivo. Particulars: 0.7 ml of 0.1 % oil solution sprayed, 0.34 m^3 chamber, after 15 minutes. As for the experimental part: Ten female common mosquitoes (Culex pipiens pallens) were left in a glass chamber (70 cm × 70 cm × 70 cm : 0.34 m^3). 0.7 ml of 0.1 % oil solution prepared for each of the present compounds according to the formulation example 7 was sprayed with a spray gun at 0.8 atmospheric pressure. After 15 minutes, the rate of knocked-down mosquitoes was examined.

The test system of data set [10] is tobacco cutworm (Spodoptera litura). The data set is described as follows: Biological test 1: artificial bait impregnated with emulsion. Conditions: 500 ppm emulsion, 4-instar larvae, after 6 days.
The subject of data set [11] is houseflies (Musca domestica). In words: Biological test 10: vapour exposure over treated aluminum plate, houseflies. It is filed as in vivo. Particulars: 0.64 ml of 0.05 (w/v) % acetone solution, no direct contact, 25 °C for 120 minutes, after 24 hours. The procedure: (§1) After 0.64 ml of a 0.05 (w/v) % acetone solution of the present compounds was dropped into an aluminum plate (bottom diameter : 7 cm), acetone was air-dried. Ten female houseflies (Musca domestica) were left in a polyethylene cup (diameter : 9 cm; depth : 4.5 cm) and the cup was sealed with a 16-mesh nylon net to prevent direct contact of the houseflies with the compound. The cup was placed upside down on the aluminum plate at 25 °C for 120 minutes. The cup was then removed from the aluminum plate, and water and feed were given to the houseflies. After 24 hours, the percent moribund was examined (two replicate).

Data set [12] has as its system brown planthopper (Nilaparvata lugens). The data set is described as follows: Biological test 2: rice plant stalk dipped in emulsion. It is filed as in vivo. Conditions: 500 ppm aqueous emulsion, larvae, after 6 days. The procedure: A stalk of a rice plant was dipped for one minute in a 500 ppm aqueous emulsion obtained by diluting each emulsifiable concentrate of the present compounds prepared according to the formulation example 1. The rice plant stalk was air-dried and placed in a polyethylene cup (diameter : 5.5 cm) where filter paper (diameter : 5.5 cm) impregnated with 1 ml of water was put. Approximately 30 larvae of brown planthopper (Nilaparvata lugens) were put in the polyethylene cup. After 6 days, the mortality of the larvae was examined.

Data set [13] relates to common mosquitoes (Culex pipiens pallens). In words: Biological test 11: vapour exposure over treated aluminum plate, mosquitoes. It is filed as in vivo. Particulars: 0.64 ml of 0.05 (w/v) % acetone solution, no direct contact, 25 °C for 120 minutes, after 24 hours. The procedure:
as §1, with “common mosquitoes (Culex pipiens pallens)” for “houseflies (Musca domestica)”, “mosquitoes” for “houseflies”, “mosquitoes.” for “houseflies.”, “mortality” for “percent moribund”

Data set [14] deals with webbing clothes moth (Tineola bisselliella). The data set is described as follows: Biological test 13: volatile agent hung in cup with webbing clothes moth larvae. It is filed as in vivo. Conditions: volatile agent (100 µg on filter paper), 25 °C for 1 week; for mortality: 10080 min. The procedure:
A wool muslin fabric (2 cm × 2 cm in size) was placed on the bottom of a polyethylene cup (bottom diameter : 10 cm, opening part diameter : 12.5 cm, height : 9.5 cm, volume : 950 cm^3 ). Ten middle instar larvae of webbing clothes moth (Tineola bisselliella) were put in the cup and each of the volatile agents prepared according to the formulation example 14 was hung from the cap in the interior of the cup. After standing at 25 °C for 1 week, the cup was opened, and the mortality and the degree of damage of the wool muslin fabric by the moths were examined (two replicate).

For the compound `CC1(C)C(/C=C(\Cl)C(F)(F)F)C1C(=O)OCc1coc(Cc2ccccc2)c1` (centres unmarked) [A, reference compound], the degree of damage result in [1] (After 1 week), in data set [1] (After 2 weeks), in data set [1] (After 3 weeks) and in [1] (After 5 weeks) was “+++” in each case. Also, the percent moribund is listed as 0% in data set [1] (After 1 week), 0% in data set [1] (After 2 weeks), 5% in [1] (After 3 weeks) and 5% in data set [1] (After 5 weeks). Moreover, the LD50 result in the data set with rats is recorded as “less than 50 mg/kg”.

Regarding `CC1(C)C(/C=C(\Cl)C(F)(F)F)C1C(=O)OCc1ccc(C(F)F)o1` (centres unmarked) [B, reference compound], the degree of damage entry in data set [1] (After 1 week), in [1] (After 2 weeks), in data set [1] (After 3 weeks) and in data set [1] (After 5 weeks) was “+++” in each case. In addition, the percent moribund in [1] (After 1 week) is on record as 50%; in data set [1] (After 2 weeks), 33%; in [1] (After 3 weeks), 53%; in data set [1] (After 5 weeks), 42%.

Regarding `CCCc1ccc(COC(=O)[C@@H]2[C@H](/C=C(\Cl)C(F)(F)F)C2(C)C)o1` (racemic) [present compound (3), 5-propyl-2-furfuryl (1RS,cis)-3-(Z-2-chloro-3,3,3-trifluoroprop-1-enyl)-2,2-dimethylcyclopropanecarboxylate], the mortality is listed as 100% in [2]; at least 90% in data set [5]; 100% in [6]; 100% in data set [7]; 100% in data set [10]; at least 90% in [12]. The mortality in [13] and in data set [14] was 100% in each case. Moreover, the percent moribund in data set [3], in data set [1] (After 1 week), in [1] (After 2 weeks), in data set [1] (After 3 weeks), in data set [1] (After 5 weeks) and in data set [11] was 100% each time. Moreover, the “rate of knocked-down mosquitoes” value in [4] is given as 100%; in data set [9] it was at least 90%. Besides, the degree of damage entry in data set [1] (After 1 week), in data set [1] (After 2 weeks), in data set [1] (After 3 weeks) and in [1] (After 5 weeks) was “-” in each case. Besides, the “degree of damage of the wool muslin fabric” value in data set [7] and in data set [14] was “no damage” in each case. Moreover, the “mortality of the hatched larvae and eggs” value in [8] amounted to 100%.

As to `CCc1ccc(COC(=O)[C@@H]2[C@H](/C=C(\Cl)C(F)(F)F)C2(C)C)o1` (racemic) [present compound (2), 5-ethyl-2-furfuryl (1RS,cis)-3-(Z-2-chloro-3,3,3-trifluoroprop-1-enyl)-2,2-dimethylcyclopropanecarboxylate], the mortality in [2] is on record as 100%; in [5], at least 90%; in data set [6], 100%; in [7] it was 100%; in [10], 100%; in data set [12], at least 90%. In addition, the mortality in [13] and in data set [14] was 100% throughout. Further, the percent moribund in data set [3], in [1] (After 1 week), in data set [1] (After 2 weeks), in [1] (After 3 weeks), in data set [1] (After 5 weeks) and in [11] was 100% each time. Besides, the entries for the “rate of knocked-down mosquitoes” value in data set [4] and in data set [9] were 100% and at least 90%, respectively. In addition, the degree of damage result in data set [1] (After 1 week), in data set [1] (After 2 weeks), in [1] (After 3 weeks) and in data set [1] (After 5 weeks) was “-” in each case. Further, the “degree of damage of the wool muslin fabric” value in [7] and in [14] was “no damage” throughout. In addition, the “mortality of the hatched larvae and eggs” value in data set [8] is reported as 100%.

Consider `C=CCc1ccc(COC(=O)[C@@H]2[C@H](/C=C(\Cl)C(F)(F)F)C2(C)C)o1` (racemic) [present compound (4), 5-allyl-2-furfuryl (1RS,cis)-3-(Z-2-chloro-3,3,3-trifluoroprop-1-enyl)-2,2-dimethylcyclopropanecarboxylate], for which the mortality is reported as 100% in data set [2]; at least 90% in [5]; 100% in data set [6]; 100% in data set [7]; 100% in data set [10]; at least 90% in data set [12]. Besides, the mortality in [13] and in data set [14] was 100% throughout. The percent moribund in data set [3], in data set [1] (After 1 week), in data set [1] (After 2 weeks), in [1] (After 3 weeks), in data set [1] (After 5 weeks) and in data set [11] was 100% each time. The “rate of knocked-down mosquitoes” value is 100% in [4] and at least 90% in data set [9]. Besides, the degree of damage entry in data set [1] (After 1 week), in [1] (After 2 weeks), in data set [1] (After 3 weeks) and in [1] (After 5 weeks) was “-” throughout. Besides, the “degree of damage of the wool muslin fabric” value in data set [7] and in [14] was “no damage” each time. Also, the “mortality of the hatched larvae and eggs” value in [8] is 100%.

The term mortality denotes the percentage killed.
